Data from US20070275990A1, “Heterocyclic Spiro Compound” (ONO PHARMACEUTICAL CO., LTD., priority 2003, published 2007).

Key:
MBR = target: T1, MBR (Rattus norvegicus, UniProt P16257); experiment: Receptor binding experiment ([3H]PK11195 competition binding); details: rat brain membrane preparation, [3H]PK11195 0.5 or 1 nmol/L; Ki calculated by Cheng and Prusoff formula from KD value and IC50
T1 construct: from tissue; host or cells: whole brain without cerebellum of male Wistar rats, crude membrane preparation
Procedure: The affinity of the compounds in the present invention to MBR was determined using rat brain membrane preparation. In addition, the measurement in the present invention was improved the accuracy of measurement and the sensitivity of measurement for evaluating the compounds in the present invention as follows. After male Wister rats were decapitated to extirpate the whole brain and cerebellums were removed. They were homogenized in ice-cold 50 mmol/L Tris-HCL buffer solution (pH 7.4), centrifuged and the obtained pellets were washed. The pellets resuspended and adjusted to about 1 mg/mL were used as rat brain membrane preparations for binding assay. The binding assay were experimented using [^3H]PK11195 as a MBR selective ligand. […]
To determine the amount of total binding in saturation binding experiment, membrane preparations, various concentrations of [^3H]PK11195, final concentration: 0.5 vol % dimethylsulfoxide (DMSO) and 50 mmol/L Tris-HCL buffer solution (pH 7.4) were mixed (total volume 200 μL) and were incubated for 1 hour at room temperature. […] The filter was dried and then the radioactivity on the filter was measured by liquid scintillation counter. The data obtained by the binding experiments were Scatchard analyzed using analysis software, KELL (Ver. 6, BIOSOFT) and the dissociation constant (KD value) was determined. […]

male Wistar rats = experiment: Evaluation of anti-stress effects (defecation under psychological stress); assay type: in vivo, rat; details: 10 mg/kg orally 30 minutes before stressor load; counted 1 hour later; media treated group average 8.7 feces
Procedure: Psychological stress was loaded to male Wistar rats (Brain research, 641, 21-28, 1994). Water was stored up to the depth of about 10 cm in a container where the platform was set at the center. A stressor began to load to rats 30 minutes after the vehicle or the compound in the present invention (the compound of Example 15(39)) were orally administered by dosage of 10 mg/kg. The number of defecation was counted 1 hour later (10 per each group). Rats without administration and load of stressor rarely defecated for 1 hour. In contrast, remarkable defecation was admitted in media treated group (average 8.7 feces) loaded by stressor. […] The results clarified that the compounds in the present invention had anti-stress effects.

Ki (MBR) [µM]	Structure (SMILES)	number of defecation (average) (male Wistar rats) [feces]
0.23	O=C1N(c2ccccc2)CCC12CCCN(S(=O)(=O)c1ccccc1)C2 (stereo not drawn) [Example 7, 2-phenyl-7-(phenylsulfonyl)-2,7-diazaspiro[4.5]decan-1-one]	
0.04	COc1ccc(S(=O)(=O)N2CCCC3(CCN(c4ccc(Cl)cc4)C3=O)C2)cc1 (stereo not drawn) [Example 15(39), 2-(4-chlorophenyl)-7-[(4-methoxyphenyl)sulfonyl]-2,7-diazaspiro[4.5]decan-1-one]	5.8
